The values below come from US6806359B1, “Hormone receptor compositions and methods” (The Salk Institute for Biological Studies, priority 1986, dated 2004).

Structures are written as SMILES. “Also recorded” adds a separate entry of the source.

One assay deals with T1, rTR alpha (Rattus norvegicus, UniProt P63059).
T1 construct: made in house; host or cells: rabbit reticulocyte lysate (SP6 transcripts of rbeA12B)
T1 sequence (P63059 1-410 isoform P63059-2): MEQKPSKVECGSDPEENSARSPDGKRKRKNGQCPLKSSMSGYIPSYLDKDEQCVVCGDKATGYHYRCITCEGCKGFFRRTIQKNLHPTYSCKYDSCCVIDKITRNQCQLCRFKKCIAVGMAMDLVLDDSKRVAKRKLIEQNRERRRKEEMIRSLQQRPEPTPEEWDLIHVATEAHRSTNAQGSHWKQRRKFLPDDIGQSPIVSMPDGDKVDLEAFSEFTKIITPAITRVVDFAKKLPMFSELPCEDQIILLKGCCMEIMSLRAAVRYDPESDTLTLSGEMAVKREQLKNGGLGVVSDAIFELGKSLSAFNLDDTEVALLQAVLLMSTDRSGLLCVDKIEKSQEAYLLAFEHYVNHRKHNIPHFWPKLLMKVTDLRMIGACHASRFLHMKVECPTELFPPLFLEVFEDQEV
Nature of the assay: ^125I-T3 binding to in vitro translated rTR alpha (Scatchard and competition). As to conditions: for competition for T3 binding to rTR alpha by excess compound: excess competitor. The source says:
In vitro translation and thyroid hormone binding of rTR alpha FIG. 69 rTR alpha was transcribed in vitro and translated in a rabbit reticulocyte lysate. […] Lane 1, no added RNA; lane 2, rbeA12, which contains the entire 5′ untranslated region; lane 3, rbeA12B, which contains only 97 bp of 5′ untranslated sequence. […] Samples from rbeA12B programmed lysates were mixed with increasing concentrations of unlabeled thyroid hormone or analogs to compete with labeled hormone. […] In vitro transcription and translation and hormone binding were performed as described (22, 23).
23. For in vitro transcription, the entire EcoRI insert of rbeA12 was cloned into pGEM1 (Promega Biotec). […] For thyroid hormone binding, transcriptions were performed with SP6 polymerase and 5 to 10 micrograms of rbeA12B linearized with SstI. […] Thyroid hormone binding for both the Scatchard and competition analyses were determined in the same manner, except that unlabeled protein was used for the Scatchard analysis. […] Specific hormone binding was determined by adding a 1000-fold excess of unlabeled hormone and assayed by counting radioactivity eluting in the excluded volume from a Sephadex G-25 fine (Pharmacia) 0.9-by 4.0-cm. column.

Another assay deals with T2, hMR (Homo sapiens, UniProt P08235).
T2 sequence (P08235 1-984): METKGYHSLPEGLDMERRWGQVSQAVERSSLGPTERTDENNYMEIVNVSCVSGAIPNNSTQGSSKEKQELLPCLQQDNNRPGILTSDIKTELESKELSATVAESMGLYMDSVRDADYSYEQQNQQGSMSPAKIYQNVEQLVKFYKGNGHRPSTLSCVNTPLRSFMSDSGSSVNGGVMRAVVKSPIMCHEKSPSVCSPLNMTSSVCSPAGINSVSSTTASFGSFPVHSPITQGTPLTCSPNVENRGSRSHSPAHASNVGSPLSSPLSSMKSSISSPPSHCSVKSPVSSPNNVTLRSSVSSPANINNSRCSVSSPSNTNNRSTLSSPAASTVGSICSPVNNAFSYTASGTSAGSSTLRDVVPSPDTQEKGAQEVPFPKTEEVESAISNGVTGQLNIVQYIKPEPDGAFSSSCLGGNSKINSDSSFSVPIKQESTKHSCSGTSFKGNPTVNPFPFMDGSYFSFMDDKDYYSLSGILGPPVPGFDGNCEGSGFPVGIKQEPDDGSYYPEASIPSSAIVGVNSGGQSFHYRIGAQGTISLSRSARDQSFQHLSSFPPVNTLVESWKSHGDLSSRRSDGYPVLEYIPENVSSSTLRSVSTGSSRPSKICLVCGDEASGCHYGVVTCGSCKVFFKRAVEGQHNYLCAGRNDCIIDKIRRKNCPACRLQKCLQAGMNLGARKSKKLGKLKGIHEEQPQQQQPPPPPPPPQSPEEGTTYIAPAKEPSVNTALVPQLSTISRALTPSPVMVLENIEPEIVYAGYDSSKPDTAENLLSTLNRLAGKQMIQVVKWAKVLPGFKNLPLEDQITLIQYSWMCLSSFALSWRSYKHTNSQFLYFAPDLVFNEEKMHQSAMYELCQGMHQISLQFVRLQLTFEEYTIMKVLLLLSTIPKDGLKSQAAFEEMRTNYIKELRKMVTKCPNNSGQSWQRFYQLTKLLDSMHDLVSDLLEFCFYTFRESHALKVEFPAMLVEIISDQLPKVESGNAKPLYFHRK
Nature of the assay: [^3H]aldosterone binding and steroid competition in extracts of pRShMR-transfected COS cells. Further details: expressed in transfected cells; host or cells: COS cells transfected with pRShMR (DEAE-dextran). Particulars: 1-, 10-, or 100-fold molar excess of unlabeled steroid. On the procedure:
Ligand specificity of the hMR protein was determined by preparing cytosol extracts from COS cells transfected with pRShMR. Two days after transfection, cells were harvested, and hormone binding was measured by a dextran-treated charcoal assay. […] This provided a measure of the relative affinity of each of these steroids for hMR.
Steroid-binding properties of expressed hMR. FIG. 38 Structure of pRShMR, the hMR expression plasmid (41). […] Each point was assayed in triplicate with 100 micrograms of extract protein in a 200-microliter incubation at 0° C. for 2.5 hours. […] The results of two independent trials representative of these competition experiments are shown. Cold competitor was present in 1-, 10-, or 100-fold molar excess. […] Subconfluent COS cells were transfected by the DEAE-dextran method (42) with 10 micrograms of pRShMR per dish. Cells were maintained for 2 days in DMEM (Dulbecco's modification of Eagle's minimum essential medium) with 5 percent charcoal-treated fetal calf serum, then harvested in […] tris-HCl. (pH 7.8), 10 nM NaCl, 1 mM EDTA, 10 mM Na2MoO4, 5 mM dithiothreitol, antipain (5 microgram/ml), leupeptin (5 microgram/ml), and 500 microM phenylmethylsulfonyl fluoride. After centrifugation at 15,000×g for 10 minutes, extracts were adjusted to 100 mM NaCl and 5 percent glycerol before binding. […] After centrifugation at 15,000×g for 2 minutes at 40C, tritium in supernatant was quantified by liquid scintillation spectrophotometry.

A further assay addresses T3, GR (Homo sapiens, UniProt P04150).
T3 sequence (P04150 1-777): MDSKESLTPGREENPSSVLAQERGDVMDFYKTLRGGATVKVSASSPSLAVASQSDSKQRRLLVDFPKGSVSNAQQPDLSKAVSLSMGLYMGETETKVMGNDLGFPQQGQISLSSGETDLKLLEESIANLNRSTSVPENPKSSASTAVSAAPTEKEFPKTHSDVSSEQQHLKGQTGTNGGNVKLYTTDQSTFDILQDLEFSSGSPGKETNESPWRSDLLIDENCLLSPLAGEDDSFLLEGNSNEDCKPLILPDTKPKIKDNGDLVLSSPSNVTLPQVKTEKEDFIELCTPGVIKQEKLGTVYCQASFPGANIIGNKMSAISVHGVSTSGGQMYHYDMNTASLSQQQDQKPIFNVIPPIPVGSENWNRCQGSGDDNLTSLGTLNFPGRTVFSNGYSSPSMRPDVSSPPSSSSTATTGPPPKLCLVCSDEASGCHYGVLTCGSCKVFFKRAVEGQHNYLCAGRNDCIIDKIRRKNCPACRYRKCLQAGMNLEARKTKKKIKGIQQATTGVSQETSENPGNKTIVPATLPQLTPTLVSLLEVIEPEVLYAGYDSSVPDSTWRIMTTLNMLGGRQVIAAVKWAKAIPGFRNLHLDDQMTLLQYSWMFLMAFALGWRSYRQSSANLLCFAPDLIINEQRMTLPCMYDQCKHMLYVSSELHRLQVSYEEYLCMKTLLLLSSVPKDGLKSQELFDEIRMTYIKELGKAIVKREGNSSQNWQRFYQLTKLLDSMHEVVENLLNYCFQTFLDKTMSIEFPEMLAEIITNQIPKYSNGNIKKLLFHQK
Nature of the assay: hGR functional assay: CAT activity in CV-1 cells cotransfected with pRShGR alpha (or mutant) and pMTVCAT. Type of assay: cell-based. Further details: The expression vector linking the RSV LTR to full length hGR cDNA (pRShGR alpha) was designed to obtain high levels of expression; expressed in transfected cells; host or cells: CV-1 monkey kidney cells, cotransfected with pMTVCAT. Particulars: 100 nM steroid, cotransfected CV-1 cells. The source says: The assay system and strategy used to study the expression of functional hGR from the cloned cDNA (See Experimental Section I) is shown in FIG. 11. In these experiments, a glucocorticoid-responsive promoter/enhancer element linked to a reporter gene was introduced into a receptor-negative cell. […] For our assay, we chose to use the MTV LTR fused to the sequence coding for chloramphenicol acetyltransferase (CAT) (EC2.3.1.28). […] Cotransfection of pMTVCAT (or pGMCAT) with a receptor expression plasmid provides functional receptors that allow induction of CAT activity upon treatment of the transfected cells with glucocorticoid hormone. In addition, biochemical studies such as steroid binding activity and Western blot analysis of the expressed receptors can be performed simultaneously.
The cells are then cultured in the presence or absence of hormone. CV-1 cells were used to monitor induction of CAT activity, and COS cells were used to measure steroid-binding capacity and the expression of hGR protein.
CAT assays were performed as indicated in Experimental Procedures (See Section II. F.). C, chloramphenicol; AC, 3-acetylchloramphenicol.
The levels of CAT activity were plotted as percentages of the maximal response observe in a particular experiment.
Each plasmid preparation used for transfection was purified using two consecutive CsCl-EtBr equilibrium gradients. […]

For the compound `N[C@@H](Cc1cc(I)c(Oc2cc(I)c(O)c(I)c2)c(I)c1)C(=O)O` [L-thyroxine], the “competition for ^125I-T3 binding to rTR alpha (in words)” value on rTR alpha (in vitro translated rTR alpha) is given as “same characteristic affinities”. In the case of `C[C@]12C[C@H](O)[C@H]3[C@@H](CCC4=CC(=O)CC[C@@]43C)[C@@H]1CC[C@@H]2C(=O)CO` [corticosterone], the “relative affinity for hMR by competition with 5 nM [^3H]aldosterone (in words)” value on hMR is reported as “very similar affinities; also recorded: compete as effectively as aldosterone itself”. On the same count and under the same terms, then `C[C@]12CC[C@H]3[C@@H](CCC4=CC(=O)CC[C@@]43C)[C@@H]1CC[C@@H]2C(=O)CO` [deoxycorticosterone], with “very similar affinities; also recorded: compete as effectively as aldosterone itself”. As for `CC(=O)[C@H]1CC[C@H]2[C@@H]3CCC4=CC(=O)CC[C@]4(C)[C@H]3CC[C@]12C` [progesterone], on rTR alpha, the “competition for T3 binding to rTR alpha by excess compound” value (shortened to “competition for T3 binding to rTR alpha”) is on record as “no competition”. As to `CC(=O)S[C@@H]1CC2=CC(=O)CC[C@]2(C)[C@H]2CC[C@@]3(C)[C@@H](CC[C@@]34CCC(=O)O4)[C@H]12` [spironolactone], the “relative affinity for hMR by competition with 5 nM [^3H]aldosterone (in words)” value on hMR is given as “weaker binding affinity”. On to `C[C@]12CC[C@H]3[C@@H](CCC4=CC(=O)CC[C@@]43C)[C@@H]1CC[C@@H]2O` [testosterone], for which the “competition for T3 binding to rTR alpha” value at rTR alpha is “no competition”. Moreover, on GR, the “induction of CAT activity by steroid” value is on record as “failed to induce CAT activity”. `C=C1CC[C@H](O)C/C1=C/C=C1\CCC[C@]2(C)[C@@H]([C@H](C)CCCC(C)C)CC[C@@H]12` [vitamin D3]: at rTR alpha, the “competition for T3 binding to rTR alpha” value is “no competition”.
